# Patent US11214594B2, “Antimicrobial peptide having synergistic antibacterial effect with antibiotics on multidrug resistant bacteria, and use thereof” (priority 2016, dated 2022)
# Where a SMILES comes first, the peptide text is derived from it.
# Key:
# E. coli [1] = assay: microbe, parasite or virus in culture; assay type: cell-based, Escherichia coli; conditions: 16 h
# In short: (§1)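 MIC read-out = lowest peptide level with no bacterial proliferation. Strains diluted in MH medium to 2×10^6 CFU; peptide twofold serial dilutions in MH added 1:1 in microtiter wells.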
# MDREC 1229 [2] = assay: microbe, parasite or virus in culture; assay type: cell-based, Escherichia coli
# In short: as §1
# MRSA 3114 = assay type: cell-based, Staphylococcus aureus; conditions: 3114
# In short: as §1
# MRSA 3126 = assay type: cell-based, Staphylococcus aureus; conditions: 3126
# In short: as §1
# MDRAB 12035 = assay: MIC of antimicrobial peptide during combined treatment with antibiotic; assay type: cell-based, Acinetobacter baumannii
# In short: (§2)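 Strains in MH medium at 2×10^6 CFU/ml were mixed with peptide diluted stepwise (2:1) from its MIC, then antibiotic dilutions in MH medium were added to give the antibiotic MIC. The reversed set-up, peptide titrated against fixed antibiotic, gave the peptide MIC.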
# A. baumannii = assay: as above; assay type: cell-based, Acinetobacter baumannii
# In short: as §2
# MDRAB 12036 = assay type: cell-based, Acinetobacter baumannii
# In short: as §1
# P. aeruginosa = assay: microbe, parasite or virus in culture; assay type: cell-based, Pseudomonas aeruginosa
# In short: as §1
# E. coli [3] = assay: MIC of antibiotic during combined treatment with antimicrobial peptide; assay type: cell-based, Escherichia coli; conditions: for Antibiotic MIC, Erythromycin / Antibiotic MIC, Linezolid / Antibiotic MIC, Vancomycin: E. coli
# In short: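 Read-out is the MIC of each combined solution, obtained from MH-medium dilutions of antibiotic added well by well, with a reversed-condition run as well.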
# S. typhimurium = assay: microbe, parasite or virus in culture; assay type: cell-based, Salmonella typhimurium
# In short: as §1
# S. epidermidis = assay: microbe, parasite or virus in culture; assay type: cell-based, Staphylococcus epidermidis
# In short: as §1
# MDRST 8009 = assay type: cell-based, Salmonella typhimurium; conditions: agent alone
# In short: as §1
# S. aureus = assay: microbe, parasite or virus in culture; assay type: cell-based, Staphylococcus aureus
# In short: as §1
# MDREC 1229 [4] = assay: MIC of antibiotic during combined treatment with antimicrobial peptide; assay type: cell-based, Escherichia coli
# In short: as §2
# MDREC 1238 = assay type: cell-based, Escherichia coli
# In short: as §1
# MDRST 8007 = assay: Minimal inhibitory concentration (MIC), single agent; assay type: cell-based, Salmonella typhimurium; conditions: agent alone
# In short: as §1
# [5] = erythromycin 4 μg/ml (Conc./MIC 1/8)
# [6] = erythromycin 8 μg/ml (Conc./MIC 1/4)
# [7] = erythromycin 16 μg/ml (Conc./MIC 1/2)
# [8] = erythromycin 32 μg/ml (Conc./MIC 1)
# [9] = vancomycin 512 μg/ml (Conc./MIC 1/2)
# [10] = vancomycin 1024 μg/ml (Conc./MIC 1)
# [11] = peptide treatment concentration 1 μg/ml
# [12] = peptide treatment concentration 2 μg/ml
# [13] = peptide treatment concentration 4 μg/ml
# [14] = peptide treatment concentration 6 μg/ml
# [15] = peptide treatment concentration 8 μg/ml
# [16] = peptide treatment concentration 16 μg/ml
# [17] = peptide treatment concentration 32 μg/ml
# [18] = peptide treatment concentration 64 μg/ml
compound,measurement,setting,value
"CC[C@H](C)[C@H](NC(=O)[C@H](CCCCN)NC(=O)[C@H](Cc1c[nH]c2ccccc12)NC(=O)[C@@H](N)CCCNC(=N)N)C(=O)N[C@@H](Cc1ccccc1)C(=O)N[C@@H](CCCCN)C(=O)N[C@@H](CCCCN)C(=O)N[C@H](C(=O)N1CCC[C@H]1C(=O)N[C@@H](CCCCN)C(=O)N[C@@H](Cc1ccccc1)C(=O)N[C@@H](CC(C)C)C(=O)N[C@@H](Cc1c[nH]cn1)C(=O)N[C@@H](CO)C(=O)N[C@@H](C)C(=O)N[C@@H](CCCCN)C(=O)N[C@@H](CCCCN)C(=O)N[C@@H](Cc1c[nH]c2ccccc12)C(N)=O)[C@@H](C)CC [PapMA-2, RWK IFK KIP KFL HSA KKW-NH2] (H-RWKIFKKIPKFLHSAKKW-NH2; N-terminus assumed)",Minimal inhibitory concentration MIC,E. coli [1],64 µg/mL
same,Minimal inhibitory concentration MIC,MDREC 1229 [2],64 µg/mL
same,Minimal inhibitory concentration MIC,MRSA 3114,>128 µg/mL
same,Minimal inhibitory concentration MIC,MRSA 3126,>128 µg/mL
same,Peptide MIC during treatment with erythromycin,MDRAB 12035; [5],4 µg/mL
same,Peptide MIC during treatment with erythromycin,MDRAB 12035; [6],4 µg/mL
same,Peptide MIC during treatment with erythromycin,MDRAB 12035; [7],2 µg/mL
same,Peptide MIC during treatment with erythromycin,MDRAB 12035; [8],0 µg/mL
same,Peptide MIC during treatment with linezolid,MDRAB 12035; linezolid 64 μg/ml (Conc./MIC 1/8),4 µg/mL
same,Peptide MIC during treatment with linezolid,MDRAB 12035; linezolid 512 μg/ml (Conc./MIC 1),0 µg/mL
same,Peptide MIC during treatment with linezolid,MDRAB 12035; linezolid […] (Conc./MIC 1/2),1 µg/mL
same,Peptide MIC during treatment with linezolid,MDRAB 12035; linezolid […] (Conc./MIC 1/4),2 µg/mL
same,Peptide MIC during treatment with vancomycin,MDRAB 12035; [9],1 µg/mL
same,Peptide MIC during treatment with vancomycin,MDRAB 12035; [10],0.25 µg/mL
same,Peptide MIC during treatment with vancomycin,MDRAB 12035; vancomycin […] (Conc./MIC 1/4),2 µg/mL
same,Peptide MIC during treatment with vancomycin,MDRAB 12035; vancomycin […] (Conc./MIC 1/8),4 µg/mL
same,Peptide MIC during treatment with antibiotic,A. baumannii; [5],4 µg/mL
same,Peptide MIC during treatment with antibiotic,A. baumannii; [6],4 µg/mL
same,Peptide MIC during treatment with antibiotic,A. baumannii; [7],1 µg/mL
same,Peptide MIC during treatment with antibiotic,A. baumannii; [8],0 µg/mL
same,Peptide MIC during treatment with antibiotic,A. baumannii; linezolid 32 μg/ml (Conc./MIC 1/8),4 µg/mL
same,Peptide MIC during treatment with antibiotic,A. baumannii; linezolid 64 μg/ml (Conc./MIC 1/4),4 µg/mL
same,Peptide MIC during treatment with antibiotic,A. baumannii; linezolid […] (Conc./MIC 1),0 µg/mL
same,Peptide MIC during treatment with antibiotic,A. baumannii; linezolid […] (Conc./MIC 1/2),0.5 µg/mL
same,Peptide MIC during treatment with antibiotic,A. baumannii; [9],0.25 µg/mL
same,Peptide MIC during treatment with antibiotic,A. baumannii; [10],0 µg/mL
same,Peptide MIC during treatment with antibiotic,A. baumannii; vancomycin […] (Conc./MIC 1/4),0.5 µg/mL
same,Peptide MIC during treatment with antibiotic,A. baumannii; vancomycin […] (Conc./MIC 1/8),2 µg/mL
same,Minimal inhibitory concentration MIC,MDRAB 12036,16 µg/mL
same,Minimal inhibitory concentration MIC,P. aeruginosa,16 µg/mL
same,Synergistic effect of antibacterial activity with existing antibiotics compared with PapMA-1,E. coli [3]; E. coli and MDREC1229,higher level than the PapMA-1 peptide
same,"Antibiotic MIC, Erythromycin",E. coli [3]; erythromycin combined with peptide at 1 μg/ml,64 µg/mL
same,"Antibiotic MIC, Erythromycin",E. coli [3]; erythromycin combined with peptide at 2 μg/ml,32 µg/mL
same,"Antibiotic MIC, Erythromycin",E. coli [3]; erythromycin combined with peptide at 4 μg/ml,16 µg/mL
same,"Antibiotic MIC, Erythromycin",E. coli [3]; erythromycin combined with peptide at 6 μg/ml,2 µg/mL
same,"Antibiotic MIC, Erythromycin",E. coli [3]; erythromycin combined with peptide at 8 μg/ml,0.5 µg/mL
same,"Antibiotic MIC, Erythromycin",E. coli [3]; erythromycin combined with peptide at 16 μg/ml,0.25 µg/mL
same,"Antibiotic MIC, Erythromycin",E. coli [3]; erythromycin combined with peptide at 32 μg/ml,0.125 µg/mL
same,"Antibiotic MIC, Erythromycin",E. coli [3]; erythromycin combined with peptide at 64 μg/ml,0 µg/mL
same,"Antibiotic MIC, Linezolid",E. coli [3]; linezolid combined with peptide at 1 μg/ml,128 µg/mL
same,"Antibiotic MIC, Linezolid",E. coli [3]; linezolid combined with peptide at 2 μg/ml,64 µg/mL
same,"Antibiotic MIC, Linezolid",E. coli [3]; linezolid combined with peptide at 4 μg/ml,16 µg/mL
same,"Antibiotic MIC, Linezolid",E. coli [3]; linezolid combined with peptide at 6 μg/ml,16 µg/mL
same,"Antibiotic MIC, Linezolid",E. coli [3]; linezolid combined with peptide at 8 μg/ml,8 µg/mL
same,"Antibiotic MIC, Linezolid",E. coli [3]; linezolid combined with peptide at 16 μg/ml,8 µg/mL
same,"Antibiotic MIC, Linezolid",E. coli [3]; linezolid combined with peptide at 32 μg/ml,4 µg/mL
same,"Antibiotic MIC, Linezolid",E. coli [3]; linezolid combined with peptide at 64 μg/ml,0 µg/mL
same,"Antibiotic MIC, Vancomycin",E. coli [3]; vancomycin combined with peptide at 1 μg/ml,>128 µg/mL
same,"Antibiotic MIC, Vancomycin",E. coli [3]; vancomycin combined with peptide at 2 μg/ml,>128 µg/mL
same,"Antibiotic MIC, Vancomycin",E. coli [3]; vancomycin combined with peptide at 4 μg/ml,>128 µg/mL
same,"Antibiotic MIC, Vancomycin",E. coli [3]; vancomycin combined with peptide at 6 μg/ml,64 µg/mL
same,"Antibiotic MIC, Vancomycin",E. coli [3]; vancomycin combined with peptide at 8 μg/ml,32 µg/mL
same,"Antibiotic MIC, Vancomycin",E. coli [3]; vancomycin combined with peptide at 16 μg/ml,8 µg/mL
same,"Antibiotic MIC, Vancomycin",E. coli [3]; vancomycin combined with peptide at 32 μg/ml,4 µg/mL
same,"Antibiotic MIC, Vancomycin",E. coli [3]; vancomycin combined with peptide at 64 μg/ml,0 µg/mL
same,Lowering of the MIC value of the antibiotics mixed with peptide compared with PapMA-1,E. coli [3]; same peptide concentration as PapMA-1,twice to four times
same,Minimal inhibitory concentration MIC,S. typhimurium,32 µg/mL
same,Minimal inhibitory concentration MIC,S. epidermidis,>128 µg/mL
same,Minimal inhibitory concentration MIC,MDRST 8009,64 µg/mL
same,Minimal inhibitory concentration MIC,S. aureus,>128 µg/mL
same,"Antibiotic MIC, Erythromycin",MDREC 1229 [4]; [11],64 µg/mL
same,"Antibiotic MIC, Linezolid",MDREC 1229 [4]; [11],>128 µg/mL
same,"Antibiotic MIC, Vancomycin",MDREC 1229 [4]; [11],>128 µg/mL
same,"Antibiotic MIC, Erythromycin",MDREC 1229 [4]; [12],32 µg/mL
same,"Antibiotic MIC, Linezolid",MDREC 1229 [4]; [12],64 µg/mL
same,"Antibiotic MIC, Vancomycin",MDREC 1229 [4]; [12],>128 µg/mL
same,"Antibiotic MIC, Erythromycin",MDREC 1229 [4]; [13],16 µg/mL
same,"Antibiotic MIC, Linezolid",MDREC 1229 [4]; [13],32 µg/mL
same,"Antibiotic MIC, Vancomycin",MDREC 1229 [4]; [13],128 µg/mL
same,"Antibiotic MIC, Erythromycin",MDREC 1229 [4]; [14],8 µg/mL
same,"Antibiotic MIC, Linezolid",MDREC 1229 [4]; [14],32 µg/mL
same,"Antibiotic MIC, Vancomycin",MDREC 1229 [4]; [14],128 µg/mL
same,"Antibiotic MIC, Erythromycin",MDREC 1229 [4]; [15],2 µg/mL
same,"Antibiotic MIC, Linezolid",MDREC 1229 [4]; [15],16 µg/mL
same,"Antibiotic MIC, Vancomycin",MDREC 1229 [4]; [15],64 µg/mL
same,"Antibiotic MIC, Erythromycin",MDREC 1229 [4]; [16],0.5 µg/mL
same,"Antibiotic MIC, Linezolid",MDREC 1229 [4]; [16],8 µg/mL
same,"Antibiotic MIC, Vancomycin",MDREC 1229 [4]; [16],16 µg/mL
same,"Antibiotic MIC, Erythromycin",MDREC 1229 [4]; [17],0.125 µg/mL
same,"Antibiotic MIC, Linezolid",MDREC 1229 [4]; [17],4 µg/mL
same,"Antibiotic MIC, Vancomycin",MDREC 1229 [4]; [17],8 µg/mL
same,"Antibiotic MIC, Erythromycin",MDREC 1229 [4]; [18],0 µg/mL
same,"Antibiotic MIC, Linezolid",MDREC 1229 [4]; [18],0 µg/mL
same,"Antibiotic MIC, Vancomycin",MDREC 1229 [4]; [18],0 µg/mL
same,Minimal inhibitory concentration MIC,MDREC 1238,64 µg/mL
same,Minimal inhibitory concentration MIC,MDRST 8007,32 µg/mL
